Experimental data taken from patent US12297190B2, “Modulators of STING (stimulator of interferon genes)” (PFIZER INC., priority 2019, dated 2025).

Target: R232-STING (Homo sapiens, UniProt Q86WV6, H232R)
Assay: biochemical

Sequence of R232-STING (Q86WV6 155-341 H232R): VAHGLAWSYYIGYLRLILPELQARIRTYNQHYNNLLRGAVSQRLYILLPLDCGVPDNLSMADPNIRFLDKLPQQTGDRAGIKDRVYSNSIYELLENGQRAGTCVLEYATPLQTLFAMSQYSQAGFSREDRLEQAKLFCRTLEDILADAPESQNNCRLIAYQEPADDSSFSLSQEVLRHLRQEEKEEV

`CCn1nc(C)cc1-c1nnc(-c2cc(C(N)=O)cc3c2cnn3CC2CC3(CCNC3)C2)[nH]1` (stereo not shown) [ZZZ070, 1-[(6-azaspiro[3.4]octan-2-yl)methyl]-4-[5-(1-ethyl-3-methyl-1H-pyrazol-5-yl)-4H-1,2,4-triazol-3-yl]-1H-indazole-6-carboxamide] and `CCn1nc(C)cc1-c1nnc(-c2cc(C(N)=O)cc3c2cnn3CC2CC3(CNC3)C2)[nH]1` [ZZZ080, 1-[(2-azaspiro[3.3]heptan-6-yl)methyl]-4-[5-(1-ethyl-3-methyl-1H-pyrazol-5-yl)-4H-1,2,4-triazol-3-yl]-1H-indazole-6-carboxamide] cannot be ordered by Ki: greater than 990 nM for the first, greater than 990 nM for the second.

`CCn1nc(C)cc1-c1nnc(-c2cc(C(N)=O)cc3c2cnn3CCCNC2CCCCC2)[nH]1` [ZZZ071, 1-[3-(cyclohexylamino)propyl]-4-[5-(1-ethyl-3-methyl-1H-pyrazol-5-yl)-4H-1,2,4-triazol-3-yl]-1H-indazole-6-carboxamide] and `CCn1nc(C)cc1-c1nnc(-c2cc(C(N)=O)cc3c2cnn3CCCC2CCNCC2)[nH]1` [ZZZ077, 4-[5-(1-ethyl-3-methyl-1H-pyrazol-5-yl)-4H-1,2,4-triazol-3-yl]-1-[3-(piperidin-4-yl)propyl]-1H-indazole-6-carboxamide] cannot be ordered by Ki: greater than 990 nM for the first, greater than 990 nM for the second.

Compared with `CCn1nc(C)cc1-c1nnc(-c2cc(C(N)=O)cc3c2cnn3CCC2CCNCC2)[nH]1` [ZZZ073, 4-[5-(1-ethyl-3-methyl-1H-pyrazol-5-yl)-4H-1,2,4-triazol-3-yl]-1-[2-(piperidin-4-yl)ethyl]-1H-indazole-6-carboxamide], `CCn1nc(C)cc1-c1nnc(-c2cc(C(N)=O)cc3c2cnn3C[C@@H](C)C2CCNCC2)[nH]1` [ZZZ076, 4-[5-(1-ethyl-3-methyl-1H-pyrazol-5-yl)-4H-1,2,4-triazol-3-yl]-1-[(2S)-2-(piperidin-4-yl)propyl]-1H-indazole-6-carboxamide] is 1.5-fold higher in Ki: 650 nM for the first, 976 nM for the second. The first binds more tightly here.

Compared with `CCn1nc(C)cc1-c1nnc(-c2cc(C(N)=O)cc3c2cnn3CC2CC3CNCC3C2)[nH]1` (stereo not shown) [ZZZ074, 4-[5-(1-ethyl-3-methyl-1H-pyrazol-5-yl)-4H-1,2,4-triazol-3-yl]-1-[(octahydrocyclopenta[c]pyrrol-5-yl)methyl]-1H-indazole-6-carboxamide], `CCn1nc(C)cc1-c1nnc(-c2cc(C(N)=O)cc3c2cnn3CCCC2CCCNC2)[nH]1` (stereo not shown) [ZZZ079, 4-[5-(1-ethyl-3-methyl-1H-pyrazol-5-yl)-4H-1,2,4-triazol-3-yl]-1-[3-(piperidin-3-yl)propyl]-1H-indazole-6-carboxamide] is lower in Ki: greater than 990 nM for the first, 785 nM for the second. The second binds more tightly here.

Going from `CCn1nc(C)cc1-c1nnc(-c2cc(C(N)=O)cc3c2cnn3[C@H]2CC[C@@H](NC)CC2)[nH]1` [ZZZ075, 4-[5-(1-ethyl-3-methyl-1H-pyrazol-5-yl)-4H-1,2,4-triazol-3-yl]-1-[(1s,4s)-4-(methylamino)cyclohexyl]-1H-indazole-6-carboxamide] to `CCn1nc(C)cc1-c1nnc(-c2cc(C(N)=O)cc3c2cnn3[C@H]2C[C@@H](NC)C2)[nH]1` [ZZZ081, 4-[5-(1-ethyl-3-methyl-1H-pyrazol-5-yl)-4H-1,2,4-triazol-3-yl]-1-[(1s,3s)-3-(methylamino)cyclobutyl]-1H-indazole-6-carboxamide], the Ki rises from 961 nM to greater than 990 nM. The first binds more tightly here.

`CCn1nc(C)cc1-c1nnc(-c2cc(C(N)=O)cc3c2cnn3C[C@H](C)C2CCNCC2)[nH]1` [ZZZ078, 4-[5-(1-ethyl-3-methyl-1H-pyrazol-5-yl)-4H-1,2,4-triazol-3-yl]-1-[(2R)-2-(piperidin-4-yl)propyl]-1H-indazole-6-carboxamide] and `CCn1nc(C)cc1-c1n[nH]c(-c2cc(C(N)=O)cc3c2cnn3CCN2CCC3CC3C2)n1` (stereo not shown) [ZZZ095, 1-[2-(3-azabicyclo[4.1.0]heptan-3-yl)ethyl]-4-[3-(1-ethyl-3-methyl-1H-pyrazol-5-yl)-1H-1,2,4-triazol-5-yl]-1H-indazole-6-carboxamide] are within 1.5-fold of each other in Ki: 641 nM for the first, 773 nM for the second.

`CCn1nc(CO)cc1-c1nc(-c2nc(C(N)=O)cc3[nH]ncc23)n(C)n1` [ZZZ082, 4-{3-[1-ethyl-3-(hydroxymethyl)-1H-pyrazol-5-yl]-1-methyl-1H-1,2,4-triazol-5-yl}-1H-pyrazolo[4,3-c]pyridine-6-carboxamide] and `CCn1nc(C)c(O)c1-c1nc(-c2nc(C(N)=O)cc3[nH]ncc23)n(C)n1` [ZZZ084, 4-[3-(1-ethyl-4-hydroxy-3-methyl-1H-pyrazol-5-yl)-1-methyl-1H-1,2,4-triazol-5-yl]-1H-pyrazolo[4,3-c] pyridine-6-carboxamide] cannot be ordered by Ki: 501 nM for the first, greater than 90.1 nM for the second.

`CCn1nc(C(=O)O)cc1-c1nc(-c2nc(C(N)=O)cc3c2cnn3C)n(C)n1` [ZZZ083, 5-[5-(6-carbamoyl-1-methyl-1H-pyrazolo[4,3-c]pyridin-4-yl)-1-methyl-1H-1,2,4-triazol-3-yl]-1-ethyl-1H-pyrazole-3-carboxylic acid] and `CCn1nc(C)c(F)c1-c1nc(-c2nc(C(N)=O)cc3c2cnn3CCN2C[C@@H](C)O[C@@H](C)C2)n(C)n1` [ZZZ087, 1-{2-[(2R,6S)-2,6-dimethylmorpholin-4-yl]ethyl}-4-[3-(1-ethyl-4-fluoro-3-methyl-1H-pyrazol-5-yl)-1-methyl-1H-1,2,4-triazol-5-yl]-1H-pyrazolo[4,3-c]pyridine-6-carboxamide] cannot be ordered by Ki: greater than 270 nM for the first, greater than 990 nM for the second.

Going from `Cn1ncc2c(-c3nc(-c4cc(C(F)(F)F)nn4CCC(=O)O)n[nH]3)cc(C(N)=O)cc21` [ZZZ085, 3-{5-[5-(6-carbamoyl-1-methyl-1H-indazol-4-yl)-1H-1,2,4-triazol-3-yl]-3-(trifluoromethyl)-1H-pyrazol-1-yl}propanoic acid] to `CCn1nc(C)cc1-c1n[nH]c(-c2cc(C(N)=O)cc3c2cnn3CCN2CC(O)C2)n1` [ZZZ100, 4-[3-(1-ethyl-3-methyl-1H-pyrazol-5-yl)-1H-1,2,4-triazol-5-yl]-1-[2-(3-hydroxyazetidin-1-yl)ethyl]-1H-indazole-6-carboxamide], the Ki rises from 44.2 nM to 842 nM (19-fold). The first binds more tightly here.

`CCn1nc(C)c(F)c1-c1nnc(-c2cc(C(N)=O)cn3c(CN)ncc23)[nH]1` [ZZZ086, 3-(aminomethyl)-8-[5-(1-ethyl-4-fluoro-3-methyl-1H-pyrazol-5-yl)-4H-1,2,4-triazol-3-yl]imidazo[1,5-c]pyridine-6-carboxamide] and `CCn1nc(C)cc1-c1n[nH]c(-c2cc(C(N)=O)cc3c2cnn3CCN2CC(C)(O)C2)n1` [ZZZ103, 4-[3-(1-ethyl-3-methyl-1H-pyrazol-5-yl)-1H-1,2,4-triazol-5-yl]-1-[2-(3-hydroxy-3-methylazetidin-1-yl)ethyl]-1H-indazole-6-carboxamide] cannot be ordered by Ki: greater than 990 nM for the first, greater than 990 nM for the second.

Compared with `CCn1nc(C)cc1-c1n[nH]c(-c2cc(C(N)=O)cc3c2cnn3CCN2CCO[C@@H](C)[C@H]2C)n1` [ZZZ088, 1-{2-[(2S,3R)-2,3-dimethylmorpholin-4-yl]ethyl}-4-[3-(1-ethyl-3-methyl-1H-pyrazol-5-yl)-1H-1,2,4-triazol-5-yl]-1H-indazole-6-carboxamide], `CCn1nc(C)cc1-c1n[nH]c(-c2cc(C(N)=O)cc3c2cnn3CCN2C[C@@H](C)OC[C@H]2C)n1` [ZZZ097, 1-{2-[(2R,5R)-2,5-dimethylmorpholin-4-yl]ethyl}-4-[3-(1-ethyl-3-methyl-1H-pyrazol-5-yl)-1H-1,2,4-triazol-5-yl]-1H-indazole-6-carboxamide] is lower in Ki: greater than 990 nM for the first, 661 nM for the second.

First: CCn1nc(C)cc1-c1n[nH]c(-c2cc(C(N)=O)cc3c2cnn3CCN2C3COCC2C3)n1 [ZZZ090, 4-[3-(1-ethyl-3-methyl-1H-pyrazol-5-yl)-1H-1,2,4-triazol-5-yl]-1-[2-(3-oxa-6-azabicyclo[3.1.1]heptan-6-yl)ethyl]-1H-indazole-6-carboxamide]
Second: CCn1nc(C)cc1-c1n[nH]c(-c2cc(C(N)=O)cc3c2cnn3CCN2CCOCC2(C)C)n1 [ZZZ102, 1-[2-(3,3-dimethylmorpholin-4-yl)ethyl]-4-[3-(1-ethyl-3-methyl-1H-pyrazol-5-yl)-1H-1,2,4-triazol-5-yl]-1H-indazole-6-carboxamide]
The Ki of the first is higher: greater than 990 nM for the first, 900 nM for the second. The second binds more tightly here.

`CCn1nc(C)cc1-c1n[nH]c(-c2cc(C(N)=O)cc3c2cnn3CCN2C[C@H](O)[C@H]2C)n1` [ZZZ091, 4-[3-(1-ethyl-3-methyl-1H-pyrazol-5-yl)-1H-1,2,4-triazol-5-yl]-1-{2-[(2R,3S)-3-hydroxy-2-methylazetidin-1-yl]ethyl}-1H-indazole-6-carboxamide] and `CCn1nc(C)cc1-c1n[nH]c(-c2cc(C(N)=O)cc3c2cnn3CCN2CC(CO)OCC2C)n1` (stereo not shown) [ZZZ096, 4-[3-(1-ethyl-3-methyl-1H-pyrazol-5-yl)-1H-1,2,4-triazol-5-yl]-1-{2-[2-(hydroxymethyl)-5-methylmorpholin-4-yl]ethyl}-1H-indazole-6-carboxamide] are within 1.5-fold of each other in Ki: 831 nM for the first, 861 nM for the second.

Compared with `CCn1nc(C)cc1-c1n[nH]c(-c2cc(C(N)=O)cc3c2cnn3CCN2CCC23CC3)n1` [ZZZ093, 1-[2-(4-azaspiro[2.3]hexan-4-yl)ethyl]-4-[3-(1-ethyl-3-methyl-1H-pyrazol-5-yl)-1H-1,2,4-triazol-5-yl]-1H-indazole-6-carboxamide], `CCn1nc(C)cc1-c1n[nH]c(-c2cc(C(N)=O)cc3c2cnn3CCN2CC3(CCCO3)C2)n1` [ZZZ094, 4-[3-(1-ethyl-3-methyl-1H-pyrazol-5-yl)-1H-1,2,4-triazol-5-yl]-1-[2-(5-oxa-2-azaspiro[3.4]octan-2-yl)ethyl]-1H-indazole-6-carboxamide] is lower in Ki: greater than 990 nM for the first, 550 nM for the second.

`CCn1nc(C)cc1-c1n[nH]c(-c2cc(C(N)=O)cc3c2cnn3CCN2CCO[C@H](C)C2)n1` [ZZZ098, 4-[3-(1-ethyl-3-methyl-1H-pyrazol-5-yl)-1H-1,2,4-triazol-5-yl]-1-{2-[(2R)-2-methylmorpholin-4-yl]ethyl}-1H-indazole-6-carboxamide] and `CCn1nc(C)cc1-c1n[nH]c(-c2cc(C(N)=O)cc3c2cnn3CCN(C)CC#N)n1` [ZZZ101, 1-{2-[(cyanomethyl)(methyl)amino]ethyl}-4-[3-(1-ethyl-3-methyl-1H-pyrazol-5-yl)-1H-1,2,4-triazol-5-yl]-1H-indazole-6-carboxamide] are within 1.5-fold of each other in Ki: 541 nM for the first, 509 nM for the second.

Work on `CCN(CCC#N)CCn1ncc2c(-c3nc(-c4cc(C)nn4CC)n[nH]3)cc(C(N)=O)cc21` [ZZZ104, 1-{2-[(2-cyanoethyl)(ethyl)amino]ethyl}-4-[3-(1-ethyl-3-methyl-1H-pyrazol-5-yl)-1H-1,2,4-triazol-5-yl]-1H-indazole-6-carboxamide] yielded a Ki of 806 nM.
